Reference: ChEMBL document CHEMBL3507680, “University of Dundee, Gates Library screen for HepG2 cell viability”

Test: Human HepG2 cell viability assay in 384 well format
Type: toxicity, cell-based
Design: dose 125 nL, time 70.5 hour; cytotoxicity at 70.5 h: concentration not given beside the values
Conditions: HepG2 cells, read-out: Inhibition

Row | SMILES | cytotoxicity at 70.5 h
1 | CCNC(=O)CN1CCN(c2cc(C)nc(-c3ccncc3)n2)CC1 | -0.76%
2 | CC(C)CNC(=O)CNC(=O)NC(C)COc1ccccc1F (stereo not given) | -13.5%
3 | COc1ccc2c(c1)CN(CC(=O)NC1CCCC1)CC2 | -12.6%
4 | CC(C)(C)c1n[nH]c(C2CN(C(=O)c3cc(C4CC4)[nH]n3)CCO2)n1 (stereo not given) | -1.31%
5 | CC(C)(C)c1n[nH]c(C2CN(C(=O)c3cnc[nH]3)CCO2)n1 (stereo not given) | -7.66%
6 | Cn1cc(CC2CCN(C(=O)NCc3csc(C4CC4)n3)C2)cn1 (stereo not given) | 0.703%
7 | CC(C)c1n[nH]c(C2CN(C(=O)c3cc(C4CC4)on3)CCO2)n1 (stereo not given) | -11.3%
8 | O=C(NCc1nnc2n1CCC2)NCC1(c2cccc(F)c2)CC1 | -5.65%
9 | Cc1cnn(CC2CCCN2C(=O)CCc2ccco2)c1 (stereo not given) | -6.55%
10 | O=C(NCCc1nnc2n1CCC2)NCC1(c2ccccc2)CC1 | 14%
11 | Cc1nc(C)c(C(=O)N2CCCC(n3ccnc3C)C2)s1 (stereo not given) | -3.06%
12 | COCCCNC(=O)c1ccccc1S(C)(=O)=O | -13.3%
13 | Cc1cnn(CC2CCCN2C(=O)CCc2c(C)noc2C)c1 (stereo not given) | 12.1%
14 | COc1ncccc1C(=O)N1CCCC(n2ccnc2C)C1 (stereo not given) | -10.3%
15 | CCOc1nnc(CN(C)C2CCCN(c3ccc(C)nn3)C2)s1 (stereo not given) | -3.1%
16 | CSc1nsc(NC(=O)N2CCc3ccccc3C2)n1 | -4.59%
17 | Cc1ncc(CN(C)C2CCCN(c3cccnn3)C2)s1 (stereo not given) | -2.85%
18 | CN(C)c1ncc(CNS(=O)(=O)c2cc(F)ccc2Cl)n1C | -9.08%
19 | CCCN1C(=O)C2(CCCCC2)NC1c1c[nH]nc1-c1cccnc1 (stereo not given) | 12.8%
20 | CC(C(=O)Nc1ncccn1)N1CCc2[nH]nc(C(F)(F)F)c2C1 (stereo not given) | -6.74%
21 | CC(c1ccccc1)N1CCC(NC(=O)CCc2ccsc2)CC1 (stereo not given) | -7.82%
22 | COc1ccc(-n2ccc(CNCc3ccc(OC)c(O)c3)n2)cc1 | 2.11%
23 | NS(=O)(=O)CCNC(=O)c1cc2cccc(F)c2o1 | 18%
24 | CN(C)c1ncc(CNS(=O)(=O)c2cccc3ccccc23)n1C | -11.7%

Row | SMILES | cytotoxicity at 70.5 h
25 | COc1nc(C)ccc1CNC(=O)NC(C)Cc1c(C)nn(C)c1C (stereo not given) | -9.98%
26 | CCC1(c2ccc(NS(=O)(=O)c3ccc(Cl)s3)cc2)CCC(=O)NC1=O (stereo not given) | -11.2%
27 | CC(C)CN1C(=O)C2(CCCC2)NC1c1c[nH]nc1-c1cccnc1 (stereo not given) | -3.57%
28 | CC(=O)NCC1CCN(c2ccnc3ccc(Br)cc23)CC1 | -2.63%
29 | Cc1ccc(-n2nnnc2C2(NCc3ccco3)CCCC2)cc1 | -13.6%
30 | CCN(CCCNC(=O)c1cc2cccc(F)c2o1)S(C)(=O)=O | -8.74%
31 | COc1ccccc1CC(C)(C)NC(=O)CN(C)C(C)C | -11.5%
32 | O=C(CC1CCCO1)NCCc1ccccc1Br (stereo not given) | -2.65%
33 | CCC(CNS(N)(=O)=O)Oc1ccccc1F (stereo not given) | -7.45%
34 | CN1C(=O)CC(N(C)Cc2nc3ccccc3c(=O)[nH]2)C1=O (stereo not given) | 23.4%
35 | CC(C)CCN1C(=O)CC(N(C)Cc2nc3ccccc3c(=O)[nH]2)C1=O (stereo not given) | -6.43%
36 | CC(NC(=O)c1cccnc1N(C)C)c1ccccc1Br (stereo not given) | 20.1%
37 | CN(C)c1ccc(NC(=O)NCc2cccs2)cn1 | -6.16%
38 | CN(C)c1ccc(NC(=O)NCc2ccc(Cl)s2)cn1 | -7.08%
39 | CCC(NCc1ccccc1Cl)c1ccccc1OCC(=O)NC (stereo not given) | -3.07%
40 | Cc1nc2sccn2c1CNc1ccc(C(=O)O)cc1 | -7.07%
41 | Cc1nc2sccn2c1CNc1cc(C(=O)O)ccc1F | -7.72%
42 | O=C(CNC(=O)C1CCCC1)NCC(O)c1ccc2ccccc2c1 (stereo not given) | -0.471%
43 | CC(C)(C)CC(=O)NCC(=O)NCC(O)c1ccc2ccccc2c1 (stereo not given) | 4.11%
44 | CC(C)n1ccc(=O)nc1SC1CCN(c2ccccc2F)C1=O (stereo not given) | -1.73%
45 | O=C1OCCN1c1cccc(CNCc2cc(F)ccc2F)c1 | 22.6%
46 | CS(=O)(=O)NC(=O)CCc1cccc(OC2CCCC2)c1 | -5.51%
47 | COc1cc(F)c(C(C)NC(=O)c2cccnc2C)cc1OC (stereo not given) | 2.35%
48 | COC(=O)CCC(=O)Nc1ccc(Br)c(C)n1 | -0.954%

Row | SMILES | cytotoxicity at 70.5 h
49 | CCc1nc(CC(=O)N2CCC(C(=O)N3CCCCC3)CC2)cs1 | -4.54%
50 | CC(C)CNC(=O)CNC(=O)NCC(O)c1ccc2ccccc2c1 (stereo not given) | -3.3%
51 | O=C(O)CN1CCC(c2ccccc2)CC1 | -3.19%
52 | CNC(=O)C(NC(=O)CCc1cccc(OC2CCCC2)c1)C(C)C (stereo not given) | 6.19%
53 | CCn1cc(S(=O)(=O)N2CCC(C)Sc3ccccc32)cn1 (stereo not given) | -1.33%
54 | CCn1cc(S(=O)(=O)N2CCCSc3ccccc32)cn1 | -7.44%
55 | CCC(=O)NC1CCCN(Cn2nc(C(C)(C)C)ccc2=O)C1 (stereo not given) | -4.43%
56 | Cc1ccc(N(C)Cc2nnnn2C2CC2)c(C)c1 | -5.96%
57 | CC(C)c1ccc(CNC(C)c2ccc(S(=O)(=O)N(C)C)cc2)cc1 (stereo not given) | -2.78%
58 | CCOCC1CCN(C(=O)c2sc(C)cc2OC(F)F)CC1 | -5.96%
59 | COc1ccccc1C1(CNCc2cccc(O)c2)CCOCC1 | -2.11%
60 | O=C(c1ccncc1)N(CCO)Cc1cc(Br)ccc1F | -10.4%
61 | COc1ccccc1C1(CNCc2cccc(C#N)c2)CCOCC1 | -9.16%
62 | Cc1cc(C)cc(OCCCn2nc3ccccn3c2=O)c1 | -13.4%
63 | O=C(NCCC(=O)N1CCCC1)c1cccnc1 | 17.4%
64 | Cc1ccc(OCCSCCn2nc3ccccn3c2=O)cc1 | -10.4%
65 | COc1cccc(CNCCNS(=O)(=O)Cc2ccccc2)c1 | -6.4%
66 | COCCC(Cc1cccc(Br)c1)C(N)=O (stereo not given) | -7.63%
67 | CC(C)CC(Cc1cccc(Br)c1)C(=O)O (stereo not given) | 22.2%
68 | CCCNC(=O)CNc1ccccc1OCCC(=O)OC | -7.23%
69 | CC1CCC(NC(=O)NCC(C)(C)CCS(C)(=O)=O)CC1 (stereo not given) | -4.98%
70 | CNC(=O)CN(C(=O)c1ccc(SC)o1)c1cccc(F)c1 | -0.365%
71 | CCCN1CCCN(S(=O)(=O)c2cnc3onc(C)c3c2)CC1 | 2.21%
72 | O=c1[nH]c2csnc2c(=O)n1Cc1ccc(Br)cc1 | -10.2%

Row | SMILES | cytotoxicity at 70.5 h
73 | CN(C)c1nc(CNC(=O)N[C@H](CO)c2ccccc2)cs1 | 30.7%
74 | CCN(Cc1ccc(Cl)c(Cl)c1)C(=O)CCn1cncn1 | -10.7%
75 | Cc1cccc2nc(CNCc3cccc4c3OCCCO4)cn12 | -0.513%
76 | Cc1noc(C)c1Cc1nc(N(C)C)no1 | -12.3%
77 | CC(C)OCCSCCn1nc2ccccn2c1=O | -12.9%
78 | Cc1cc(C(=O)N2CCCN(c3nccs3)CC2)c(C)n1C(C)C | 29.5%
79 | COCCN(c1ccncc1)S(=O)(=O)c1cc(C)c(F)cc1F | 15.9%
80 | CC(C)OCCN(C)CC(c1cccs1)N1CCOCC1 (stereo not given) | 29.2%
81 | N#Cc1cc(F)c(NCCc2ccc(S(N)(=O)=O)cc2)c(F)c1 | -2.35%
82 | CN(C)c1ncc(CNC(=O)Nc2ccccc2F)n1C | -1.14%
83 | CC(O)(CNc1ccccn1)c1ccccc1 (stereo not given) | 19.5%
84 | COc1cccc(C(=O)NC(C)CCN2CCOCC2)c1F (stereo not given) | -5.81%
85 | CCS(=O)(=O)c1ccc(CNc2c(Cl)cccc2C#N)cc1 | -1.09%
86 | CN(C1CCCC1)C(C)(C)C(=O)NCCNC(N)=O | -0.603%
87 | O=C(CCc1ccccc1)N1CCCCC1C1OCCO1 (stereo not given) | -3.98%
88 | COc1cccc(CSCC(=O)NCc2cccnc2)c1 | -3.51%
89 | CC1CN(C(=O)NCCn2ccnc2)CCO1 (stereo not given) | -1.49%
90 | O=C(CCN1CCSCC1c1ccccc1)N1CCOCC1 (stereo not given) | 7.46%
91 | Cc1nccc(CNS(=O)(=O)N(C)Cc2ccc(Cl)cc2)n1 | 8.78%
92 | O=C1CC(NS(=O)(=O)N2CCOCC2)CN1Cc1ccccc1 (stereo not given) | -5.68%
93 | CN(C)C(=O)c1cccc(NC(=O)N2CCCC(C(F)(F)F)C2)c1 (stereo not given) | -8.44%
94 | O=C(CN1CCCNC1=O)Nc1ccccc1SC(F)(F)F | 21.5%
95 | c1ccc2nc(N3CCCC(Cn4cncn4)C3)cnc2c1 (stereo not given) | -1.5%
96 | O=C(NCC[S+]([O-])c1ccccc1)NCC(F)(F)F (stereo not given) | -7.27%

Row | SMILES | cytotoxicity at 70.5 h
97 | CCN(c1ccc(C(=O)NCc2cc[nH]n2)cc1)C(C)C | 22.1%
98 | CC(C)(O)CNc1ccc(C#N)c(C(F)(F)F)c1 | -1.99%
99 | O=C(CN1CCCNC1=O)Nc1ccccc1C(=O)C1CCCC1 | -0.928%
100 | Cc1cc(CCC(=O)N2CCC(O)CC2)ccc1Br | -0.947%
101 | CN(CC(F)F)C(=O)c1cn(-c2ccc(Br)cc2)cn1 | 3.66%
102 | CSC(C)(C)CNC(=O)NCC[S+]([O-])c1ccccc1 (stereo not given) | -6.22%
103 | CC(C)c1nc(CNc2ccc(CCO)cc2)cs1 | 25.6%
104 | CCN(C(=O)CN(CC(N)=O)C(C)C)C1=CCCC1 | 22.8%
105 | Cc1cc(Br)cnc1NCCN1CCC(N(C)C)CC1 | -4.2%
106 | CCc1nc(CNCC2(C(N)=O)CCOCC2)cs1 | -4.76%
107 | COC1CCN(CCNc2ncc(Br)cc2C)CC1 | -1.86%
108 | Cc1nn(C)c(Oc2cccnc2)c1NC(=O)C1CCCO1 (stereo not given) | -3.71%
109 | CC(Cn1cccn1)NCc1csc(-c2ccc3c(c2)OCO3)n1 (stereo not given) | -5.39%
110 | Cc1nn(C)c(Oc2cccc(F)c2)c1NC(=O)C1CCOCC1 | -14.1%
111 | CC(Cn1cccn1)NCc1nc(-c2ccc3c(c2)OCO3)no1 (stereo not given) | 13%
112 | O=C(Nc1ncn(Cc2cccc(Br)c2)n1)C1CCC1 | -13.9%
113 | O=C(NCc1nnc2n1CCC2)N1CCC2(CCCCC2)CC1 | -12.2%
114 | CCc1nc(CC(=O)NCC2(C(N)=O)CCOCC2)cs1 | -6.76%
115 | CN(CC(=O)N(C)C1CCCCC1)Cc1nc2ccccc2c(=O)[nH]1 | -6.53%
116 | CCN(CC)c1ccc(CNS(=O)(=O)C2CCOCC2)cc1F | -10.6%
117 | CS(=O)(=O)Cc1nc(CN2CCC(C(F)(F)F)CC2)cs1 | -8.36%
118 | CN(C)C(C)(C)CNCc1cn(C)nc1-c1cccnc1 | 17.8%
119 | COc1ccc(CNc2c(C)nn(C(C)C)c2C)cc1OC | -2.06%
120 | CC(NCc1cccc(C#N)c1)c1ccccn1 (stereo not given) | -6.12%
